{"source": "patent US11560370B1", "about": "“5-membered heteroaryl carboxamide compounds for treatment of HBV” (Assembly Biosciences, Inc., priority 2018, dated 2023)", "data": [{"test_system": "HBV", "assay": "Viral production from HepAD38 cells, viral load by qPCR of HBV core sequence", "assay_type": "cell-based", "conditions": "5 days, supernatant HBV DNA by qPCR, read-out: Viral Load EC50 Activity range", "method_in_brief": "(§1)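 HepAD38 cells in tetracycline-free medium with 2% FBS, 50,000 cells/well, treated 5 days at 37° C. with compound from 10 μM top concentration (1% DMSO final). Supernatant HBV DNA measured by TaqMan qPCR of core sequence against standards, versus DMSO wells; viability by CellTiter-Glo; EC50/CC50 by four-parameter fit.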", "units": {"EC50": "nM"}, "values": [{"compound": "Cn1nc(C2CCC(c3ccccc3)C2)c(C(=O)Nc2ccc(F)c(Cl)c2)c1N", "note": "(single isomer, unassigned) [AIA-202A, 5-Amino-N-(3-chloro-4-fluorophenyl)-1-methyl-3-(3-phenylcyclopentyl)-1H-pyrazole-4-carboxamide]", "EC50": "< 100"}, {"compound": "CN(C1CC2CC(c3nn(C)c(N)c3C(=O)Nc3ccc(F)c(Cl)c3)CC2C1)S(C)(=O)=O", "note": "(stereo not drawn) [AIA-043]", "EC50": "< 100"}, {"compound": "Cn1nc(C2CC3CC(O)(C(C)(C)O)CC3C2)c(C(=O)Nc2ccc(F)c(Cl)c2)c1N", "note": "(stereo not drawn) [AIA-257]", "EC50": "< 100"}, {"compound": "Cn1nc(C2CC3CC4(CNC(=O)C4)CC3C2)c(C(=O)Nc2ccc(F)c(Cl)c2)c1N", "note": "(stereo not drawn) [HBV-AIA-039]", "EC50": "< 100"}, {"compound": "Cn1nc(C2CC3CC(N)CC3C2)c(C(=O)Nc2ccc(F)c(Cl)c2)c1N", "note": "(stereo not drawn) [AIA-073]", "EC50": "100 to 500"}, {"compound": "Cn1nc(C2CCC(c3ccccc3)C2)c(C(=O)Nc2ccc(F)c(Cl)c2)c1N", "note": "(single isomer, unassigned) [AIA-202C, 5-Amino-N-(3-chloro-4-fluorophenyl)-1-methyl-3-(3-phenylcyclopentyl)-1H-pyrazole-4-carboxamide]", "EC50": "500 to 10000"}, {"compound": "Cn1nc(C2CC3CC([S+](C)[O-])CC3C2)c(C(=O)Nc2ccc(F)c(Cl)c2)c1N", "note": "(stereo not drawn) [AIA-074]", "EC50": "< 100"}, {"compound": "Cn1nc(C2CC3CC(C#N)CC3C2)c(C(=O)Nc2ccc(F)c(Cl)c2)c1N", "note": "(stereo not drawn) [AIA-027]", "EC50": "< 100"}, {"compound": "COc1cc(C(=O)NCCS(C)(=O)=O)ccc1C1CCC(c2nn(C)c(N)c2C(=O)Nc2ccc(F)c(Cl)c2)C1", "note": "(stereo not drawn) [AIA-387-2, 5-Amino-N-(3-chloro-4-fluorophenyl)-3-(3-(2-methoxy-4-((2-(methylsulfonyl)ethyl)carbamoyl)phenyl)cyclopentyl)-1-methyl-1H-pyrazole-4-carboxamide]", "EC50": "< 100"}, {"compound": "Cn1nc(C2CC3CN(C(=O)OC(C)(C)C)CC3C2)c(C(=O)Nc2ccc(F)c(Cl)c2)c1N", "note": "(stereo not drawn) [AIA-005]", "EC50": "< 100"}, {"compound": "Cn1nc(C2CC3CC(N4CCOC4=O)CC3C2)c(C(=O)Nc2ccc(F)c(Cl)c2)c1N", "note": "(stereo not drawn) [AIA-046]", "EC50": "< 100"}, {"compound": "5-Amino-N-(3-chloro-4-fluorophenyl)-1-methyl-3-(3-(pyridin-4-yl)cyclopentyl)-1H-pyrazole-4-carboxamide [AIA-271]", "EC50": "< 100"}, {"compound": "COC1CC2CC(c3nn(C)c(N)c3C(=O)Nc3ccc(F)c(Cl)c3)CC2C1", "note": "(stereo not drawn) [AIA-285]", "EC50": "< 100"}, {"compound": "COc1ccccc1C1CCC(c2nn(C)c(N)c2C(=O)Nc2ccc(F)c(Cl)c2)C1", "note": "(single isomer, unassigned) [AIA-275D, 5-Amino-N-(3-chloro-4-fluorophenyl)-3-(3-(2-methoxyphenyl)cyclopentyl)-1-methyl-1H-pyrazole-4-carboxamide]", "EC50": "< 100"}, {"compound": "CSC1CC2CC(c3nn(C)c(N)c3C(=O)Nc3ccc(F)c(Cl)c3)CC2C1", "note": "(stereo not drawn) [AIA-028]", "EC50": "< 100"}, {"compound": "Cn1nc(C2CC3CC(O)(COC(F)F)CC3C2)c(C(=O)Nc2ccc(F)c(Cl)c2)c1N", "note": "(stereo not drawn) [AIA-253-1]", "EC50": "< 100"}, {"compound": "Cn1nc(C2CC3CC(O)(CSCCO)CC3C2)c(C(=O)Nc2ccc(F)c(Cl)c2)c1N", "note": "(stereo not drawn) [AIA-283]", "EC50": "< 100"}, {"compound": "Cn1nc(C2CC3CC(NS(=O)(=O)C(F)(F)F)CC3C2)c(C(=O)Nc2ccc(F)c(Cl)c2)c1N", "note": "(stereo not drawn) [AIA-086]", "EC50": "< 100"}, {"compound": "Cn1nc(C2CC3COC(=O)CC3C2)c(C(=O)Nc2ccc(F)c(Cl)c2)c1N", "note": "(stereo not drawn) [AIA-275]", "EC50": "< 100"}, {"compound": "Cn1nc(C2CC3CC(NS(C)(=O)=O)CC3C2)c(C(=O)Nc2ccc(F)c(Cl)c2)c1N", "note": "(stereo not drawn) [AIA-042]", "EC50": "< 100"}, {"compound": "Cn1nc([C@@H]2CC3C/C(=N/O)C[C@@H]3C2)c(C(=O)Nc2ccc(F)c(Cl)c2)c1N", "note": "(stereo partly drawn) [AIA-032-A]", "EC50": "< 100"}]}, {"test_system": "HBV", "assay": "Viral production from HepAD38 cells, viral load by qPCR of HBV core sequence", "assay_type": "cell-based", "conditions": "Hepatitis B virus, HePAD38, 120 h, 5 days, supernatant HBV DNA by qPCR, read-out: Viral Load EC50 Activity range", "method_in_brief": "as §1", "units": {"EC50": "nM"}, "values": [{"compound": "CC(N1CC2CC(c3nn(C)c(N)c3C(=O)Nc3ccc(F)c(Cl)c3)CC2C1)C(F)(F)F", "note": "(stereo not drawn) [AIA-054, 5-Amino-N-(3-chloro-4-fluorophenyl)-1-methyl-3-(2-(1,1,1-trifluoropropan-2-yl)octahydrocyclopenta[c]pyrrol-5-yl)-1H-pyrazole-4-carboxamide]", "EC50": "< 100"}, {"compound": "Cn1nc(C2CC3CC(O)(CS(=O)(=O)C(C)(C)C)CC3C2)c(C(=O)Nc2ccc(F)c(Cl)c2)c1N", "note": "(single isomer, unassigned) [AIA-260-1, 5-Amino-3-(5-((tert-butylsulfonyl)methyl)-5-hydroxyoctahydropentalen-2-yl)-N-(3-chloro-4-fluorophenyl)-1-methyl-1H-pyrazole-4-carboxamide]", "EC50": "< 100"}, {"compound": "Cn1nc(C2CC3CC(O)(CS(=O)(=O)C4CC4)CC3C2)c(C(=O)Nc2ccc(F)c(Cl)c2)c1N", "note": "(stereo not drawn) [AIA-252-1, 5-Amino-N-(3-chloro-4-fluorophenyl)-3-(5-((cyclopropylsulfonyl)methyl)-5-hydroxyortahydropentalen-2-yl)-1-methyl-1H-pyrazole-4-carboxamide]", "EC50": "< 100"}, {"compound": "Cn1nc(C2CC3CC(O)(CN4CCOCC4)CC3C2)c(C(=O)Nc2ccc(F)c(Cl)c2)c1N", "note": "(single isomer, unassigned) [AIA-364-2, 5-Amino-N-(3-chloro-4-fluorophenyl)-3-(5-hydroxy-5-(morpholinomethyl)octahydropentalen-2-yl)-1-methyl-1H-pyrazole-4-carboxamide]", "EC50": "100 to 500"}, {"compound": "COc1cc(-c2c[nH]cn2)ccc1C1CCC(c2nn(C)c(N)c2C(=O)Nc2ccc(F)c(Cl)c2)C1", "note": "(single isomer, unassigned) [AIA-366-2, 3-(3-(4-(1H-Imidazol-4-yl)-2-methoxyphenyl)cyclopentyl)-5-amino-N-(3-chloro-4-fluorophenyl)-1-methyl-1H-pyrazole-4-carboxamide]", "EC50": "< 100"}, {"compound": "Cn1nc(C2CC3CC(O)(CS(=O)(=O)CCCN4CCNCC4=O)CC3C2)c(C(=O)Nc2ccc(F)c(Cl)c2)c1N", "note": "(single isomer, unassigned) [AIA-351-a, 5-Amino-N-(3-chloro-4-fluorophenyl)-3-(5-hydroxy-5-(((3-(2-oxopiperazin-1-yl)propyl)sulfonyl)methyl)octahydropentalen-2-yl)-1-methyl-1H-pyrazole-4-carboxamide]", "EC50": "500 to 10000"}, {"compound": "Cn1nc(C2CC3CC(N4CCC4)CC3C2)c(C(=O)Nc2ccc(F)c(Cl)c2)c1N", "note": "(stereo not drawn) [AIA-013, 5-Amino-3-(5-(azetidin-1-yl)octahydropentalen-2-yl)-N-(3-chloro-4-fluorophenyl)-1-methyl-1H-pyrazole-4-carboxamide]", "EC50": "100 to 500"}, {"compound": "Cn1nc(C2CC3C[S+]([O-])CC3C2)c(C(=O)Nc2ccc(F)c(Cl)c2)c1N", "note": "(single isomer, unassigned) [AIA-056-A, 5-Amino-N-(3-chloro-4-fluorophenyl)-1-methyl-3-(2-oxidohexahydro-1H-cyclopenta[c]thiophen-5-yl)-1H-pyrazole-4-carboxamide]", "EC50": "500 to 10000"}, {"compound": "Cn1nc(C2CC3CNC(=O)CC3C2)c(C(=O)Nc2ccc(F)c(Cl)c2)c1N", "note": "(single isomer, unassigned) [AIA-033-A, 5-Amino-N-(3-chloro-4-fluorophenyl)-1-methyl-3-(3-oxooctahydro-1H-cyclopenta[c]pyridin-6-yl)-1H-pyrazole-4-carboxamide]", "EC50": "100 to 500"}, {"compound": "Cn1nc([C@H]2CC3C[C@](O)(CS(C)(=O)=O)CC3C2)c(C(=O)Nc2ccc(F)c(Cl)c2)c1N", "note": "(stereo partly drawn) [AIA-227-2, 5-Amino-N-(3-chloro-4-fluorophenyl)-3-((2s,5s)-5-hydroxy-5-(methylsulfonylmethyl)octahydropentalen-2-yl)-1-methyl-1H-pyrazole-4-carboxamide]", "EC50": "< 100"}, {"compound": "Cn1nc(C2CC3CC(O)(CN4CCOCC4)CC3C2)c(C(=O)Nc2ccc(F)c(Cl)c2)c1N", "note": "(stereo not drawn) [AIA-364-1, 5-Amin o-N-(3-chloro-4-fluorophenyl)-3-(5-hydroxy-5-(morpholinomethyl)octahydropentalen-2-yl)-1-methyl-1H-pyrazole-4-carboxamide]", "EC50": "500 to 10000"}, {"compound": "CCS(=O)(=O)CC1(O)CC2CC(c3nn(C)c(N)c3C(=O)Nc3ccc(F)c(Cl)c3)CC2C1", "note": "(single isomer, unassigned) [AIA-250-1, 5-Amino-N-(3-chloro-4-fluorophenyl)-3-(5-((ethylsulfonyl)nethyl)-5-hydroxyoctahydropentalen-2-yl)-1-methyl-1H-pyrazole-4-carboxamide]", "EC50": "< 100"}, {"compound": "Cn1nc(C2CCC(c3ccccc3)C2)c(C(=O)Nc2cc(F)c(F)c(Br)c2)c1N", "note": "(stereo not drawn) [AIA-278, 5-Amino-N-(3-bromo-4,5-difluorophenyl)-1-methyl-3-(3-phenylcyclopentyl)-1H-pyrazole-4-carboxamide]", "EC50": "100 to 500"}, {"compound": "Cn1nc(C2CC3CC(O)(COCC(F)(F)F)CC3C2)c(C(=O)Nc2ccc(F)c(Cl)c2)c1N", "note": "(stereo not drawn) [AIA-254, 5-Amino-N-(3-chloro-4-fluorophenyl)-3-((2s,5s)-5-hydroxy-5-((2,2,2-trifluoroethoxy)methyl)octahydropentalen-2-yl)-1-methyl-1H-pyrazole-4-carboxamide]", "EC50": "< 100"}, {"compound": "Cn1nc(C2CC3CC(NCCO)CC3C2)c(C(=O)Nc2ccc(F)c(Cl)c2)c1N", "note": "(stereo not drawn) [AIA-103, 5-Amino-N-(3-chloro-4-fluorophenyl)-3-(5-((2-hydroxyethyl)amino)octahydropentalen-2-yl)-1-methyl-1H-pyrazole-4-carboxamide]", "EC50": "100 to 500"}, {"compound": "COc1ccc([C@@H]2CC[C@@H](c3nn(C)c(N)c3C(=O)Nc3ccc(F)c(Cl)c3)C2)cc1", "note": "[AIA-003-D, 5-amino-N-(3-chloro-4-fluorophenyl)-3-((1R,3R)-3-(4-methoxyphenyl)cyclopentyl)-1-methyl-1H-pyrazole-4-carboxamide]", "EC50": "< 100"}, {"compound": "Cn1nc(C2CC3CN(S(C)(=O)=O)CC3C2)c(C(=O)Nc2ccc(F)c(Cl)c2)c1N", "note": "(stereo not drawn) [AIA-024, 5-Amino-N-(3-chloro-4-fluorophenyl)-1-methyl-3-(2-(methylsulfonyl)octa hydrocyclopenta[c]pyrrol-5-yl)-1H-pyrazole-4-carboxamide]", "EC50": "< 100"}, {"compound": "COc1cc(-c2nccs2)ccc1C1CCC(c2nn(C)c(N)c2C(=O)Nc2ccc(F)c(Cl)c2)C1", "note": "(stereo not drawn) [AIA-371, 5-Amino-N-(3-chloro-4-fluorophenyl)-3-(3-(2-methoxy-4-(thiazol-2-yl)phenyl)cyclopentyl)-1-methyl-1H-pyrazole-4-carboxamide]", "EC50": "500 to 10000"}]}]}
